Experimental data as given in publication PMC10215740 (Antibiotics, 2023).
Several values for one entry are separate records, joined by “and”; a condition that tells them apart may be missing. Equal values may be shown once.

How the values were obtained:
[1] = Time with concentration above MIC targets (T>MIC, %T>MIC) in plasma and spinal tissues, microdialysis porcine model; format: in vivo, pigs (Danish Landrace breed)
From the text: (§1) Eight female pigs (Danish Landrace breed, weight 78–82 kg) were included. In general anaesthesia, microdialysis catheters were placed in the third cervical (C3) vertebral cancellous bone, the C3-C4 intervertebral disc, paravertebral muscle, and adjacent subcutaneous tissue. Plasma samples were obtained as a reference. Abiding by the recommendations of replacement, reduction, and refinement (the 3 Rs) when conducting animal studies, the data sampled in extrathecal spinal tissues in the present study are derived from animals where lower extremity data were reported previously. […] The dose and mode of administration used were in accordance with the clinical practice at our institution. Sampling was conducted for 8 h.
(§2) (Figure 3). The microdialysis catheters used were CMA 70 (membrane length 10 and 20 mm, molecular mass cut of 20 kDa; M Dialysis AB, Stockholm, Sweden). Through an anterolateral approach, the C2, C3, and C4 vertebrae were exposed. Using a 2 mm drill, a 25 mm drill hole was made into the C3 vertebra in which a 20 mm microdialysis catheter was placed. Afterward, with aid from a splitable microdialysis introducer (M Dialysis AB, Stockholm, Sweden), a 10 mm microdialysis catheter was positioned in the C3-C4 intervertebral disc, and a 20 mm microdialysis catheter was positioned in both the exposed paravertebral muscle and adjacent subcutaneous tissue. Correct positioning of the microdialysis catheters in the vertebra and the intervertebral disc was verified by fluoroscopy. The catheters were connected to precision pumps (CMA 107; M Dialysis AB, Stockholm, Sweden) and perfused with 0.9% NaCl solution at a flow rate of 1 μL/min.
(§3) After catheter placement, microdialysis sampling was initiated with a tissue-equilibration period of 20 min prior to the antibiotic intravenous administration. […] Microdialysates were collected at 30 min intervals for the first 4 h, and at 60 min intervals for the last 4 h, resulting in a total of 12 samples during an 8-h dosing interval. At the midpoint of each sampling interval, blood samples were collected from a central venous catheter for reference. The blood samples were stored at 5 °C for a maximum of 6 h before being centrifuged (room temperature, 3000 g, 10 min), and plasma aliquots were made. […] The recovery sample was later used for individual catheter calibration and calculation of absolute tissue concentrations. All collected samples were stored at –80 °C until the chemical analyses were performed; microdialysate analyses were performed at the Department of Forensic Medicine, Aarhus University, Denmark, and plasma aliquot analyses were performed at the Department of Clinical Biochemistry, Aarhus University Hospital, Aarhus, Denmark.
(§4) The free drug concentration of meropenem in plasma was quantified using ultra-high performance liquid chromatography (UHPLC).
(§5) The area under the concentration–time curves from zero to the last measured value (AUC0-8h) was calculated using the trapezoidal rule. The Cmax was calculated as the maximum concentration of all the recorded concentrations, and the Tmax was calculated as the time to achieve Cmax. As a measure of tissue penetration, the ratio of tissue AUC to plasma AUC (AUCtissue/AUCplasma) was calculated. A general comparison of the T>MIC and the pharmacokinetic parameters was conducted using repeated measurements of the analysis of variance (ANOVA), followed by pairwise comparisons made by linear regression. Because of a small sample size, it was necessary to conduct a correction for the degrees of freedom by the Kenward–Roger approximation method. Using the visual diagnosis of residuals, fitted values and estimates of random-effects model assumptions were tested. A p-value of less than 0.05 was considered significant.

[2] = Plasma and spinal tissue pharmacokinetics by microdialysis after single-dose co-administered i.v. meropenem and vancomycin; conditions: free drug, single i.v. 1000 mg meropenem + 1000 mg vancomycin co-administered, mean (95%CI)
From the text: as §1, §2, §3, §4, §5

[3] = intervertebral disc, microdialysis, pigs, one disc catheter malfunctioned
[4] = paravertebral muscle, microdialysis, pigs n = 8
[5] = subcutaneous tissue, microdialysis, pigs n = 8
[6] = vertebral cancellous bone, microdialysis, pigs n = 8

Q: Which results are given for `C[C@@H](O)[C@H]1C(=O)N2C(C(=O)O)=C(S[C@@H]3CN[C@H](C(=O)N(C)C)C3)[C@H](C)[C@H]12` [Meropenem, meropenem]?
A: Mean T>MIC (min) ([1]; meropenem MIC 0.125 μg/mL (low), C3-C4 intervertebral disc, microdialysis, UHPLC-MS/MS, pigs, one disc catheter malfunctioned, single i.v. 1000 mg co-administered with vancomycin, mean): 366 (335; 396) min; Mean T>MIC (min) ([1]; meropenem MIC 0.125 μg/mL (low), C3 vertebral cancellous bone, microdialysis, UHPLC-MS/MS, pigs n = 8, single i.v. 1000 mg co-administered with vancomycin, mean): 244 (215; 272) min; Mean %T>MIC ([1]; meropenem MIC 0.125 μg/mL (low), intervertebral disc, microdialysis, percentage of dosing interval of 450 min, pigs, single i.v. 1000 mg): 81 (74; 88) %; Mean T>MIC (min) ([1]; meropenem MIC 0.125 μg/mL (low), paravertebral muscle, microdialysis, UHPLC-MS/MS, pigs n = 8, single i.v. 1000 mg co-administered with vancomycin, mean): 285 (256; 314) min; Mean %T>MIC ([1]; meropenem MIC 0.125 μg/mL (low), paravertebral muscle, microdialysis, percentage of dosing interval of 450 min, pigs n = 8, single i.v. 1000 mg): 63 (57; 70) %; Mean T>MIC ([1]; meropenem MIC 0.125 μg/mL (low), plasma, free drug, UHPLC, pigs n = 8, single i.v. 1000 mg over 10 min co-administered with vancomycin 1000 mg, linear interpolation, mean): 406 min; Mean %T>MIC ([1]; meropenem MIC 0.125 μg/mL (low), plasma, percentage of dosing interval of 450 min, pigs n = 8, single i.v. 1000 mg co-administered with vancomycin): 90%; Mean T>MIC (min) ([1]; meropenem MIC 0.125 μg/mL (low), subcutaneous tissue, microdialysis, UHPLC-MS/MS, pigs n = 8, single i.v. 1000 mg co-administered with vancomycin, mean): 334 (305; 363) min; Mean %T>MIC ([1]; meropenem MIC 0.125 μg/mL (low), subcutaneous tissue, microdialysis, percentage of dosing interval of 450 min, pigs n = 8, single i.v. 1000 mg): 74 (68; 81) %; Mean %T>MIC ([1]; meropenem MIC 0.125 μg/mL (low), vertebral cancellous bone, microdialysis, percentage of dosing interval of 450 min, pigs n = 8, single i.v. 1000 mg): 54 (48; 61) %; %T>MIC ([1]; meropenem low MIC target (0.125 µg/mL), all the investigated compartments, 8-h dosing interval, pigs, single i.v. 1000 mg): ≥ 54%; %T>MIC ([1]; pig, in vivo): 25–36%; Mean %T>MIC ([1]; pig, in vivo): 36 (33; 40) %; Mean T>MIC (min) ([1]; pig, in vivo): 163 (147; 180) min; %T>MIC ([1]; pig, in vivo, iv): ≤ 40%; Mean %T>MIC ([1]; pig, in vivo, iv): 40% and 26 (22; 30) % and 25 (22; 29) % and 35 (31; 39) %; Mean T>MIC ([1]; pig, in vivo, iv): 181 min; Mean T>MIC (min) ([1]; pig, in vivo, iv): 118 (101; 134) min and 114 (98; 131) min and 158 (141; 175) min; %T>MIC ([1]; pig, in vivo, iv, listed as meropenem): 25–90%

Q: With `CN[C@H](CC(C)C)C(=O)N[C@H]1C(=O)N[C@@H](CC(N)=O)C(=O)N[C@H]2C(=O)N[C@H]3C(=O)N[C@H](C(=O)N[C@H](C(=O)O)c4cc(O)cc(O)c4-c4cc3ccc4O)[C@H](O)c3ccc(c(Cl)c3)Oc3cc2cc(c3O[C@@H]2O[C@H](CO)[C@@H](O)[C@H](O)[C@H]2O[C@H]2C[C@](C)(N)[C@H](O)[C@H](C)O2)Oc2ccc(cc2Cl)[C@H]1O` [Vancomycin, vancomycin] as the compound, how does the AUC0-8h [2, 3] read?
A: 877 (−325; 2079) min μg/mL

Q: And the Cmax [2, 3]?
A: 3 (−3; 10) μg/mL

Q: And the AUC0-8h [2, 4]?
A: 2538 (1379; 3698) min μg/mL

Q: And the Cmax [2, 4]?
A: 11 (5; 17) μg/mL

Q: And the Cmax ([2]; plasma, pigs n = 8)?
A: 35 (29; 41) μg/mL

Q: And the AUC0-8h [2, 5]?
A: 3767 (2608; 4927) min μg/mL

Q: What about the Cmax [2, 5] of the same compound?
A: 17 (11; 23) μg/mL

Q: What about the AUC0-8h [2, 6] of the same compound?
A: 1698 (539; 2858) min μg/mL

Q: And the Cmax [2, 6]?
A: 6 (0.4; 12) μg/mL

Q: And the “Mean %T>MIC” value ([1]; vancomycin MIC 1 μg/mL (low), intervertebral disc, microdialysis, percentage of dosing interval of 450 min, pigs, single i.v. 1000 mg)?
A: 69%

Q: And the “Mean T>MIC” value ([1]; vancomycin MIC 1 μg/mL (low), intervertebral disc, microdialysis, pigs, one disc catheter malfunctioned, single i.v. 1000 mg co-administered with meropenem, mean)?
A: 311 min

Q: What about the “Mean %T>MIC” value ([1]; vancomycin MIC 1 μg/mL (low), paravertebral muscle, microdialysis, percentage of dosing interval of 450 min, pigs n = 8, single i.v. 1000 mg) of the same compound?
A: 96%

Q: And the “Mean T>MIC” value ([1]; vancomycin MIC 1 μg/mL (low), paravertebral muscle, microdialysis, pigs n = 8, single i.v. 1000 mg co-administered with meropenem, mean)?
A: 433 min

Q: And the “Mean T>MIC” value ([1]; vancomycin MIC 1 μg/mL (low), plasma, free drug, enzyme immunoassay, pigs n = 8, single i.v. 1000 mg over 100 min co-administered with meropenem 1000 mg, linear interpolation, mean)?
A: 449 min

Q: And the “Mean %T>MIC” value ([1]; vancomycin MIC 1 μg/mL (low), plasma, percentage of dosing interval of 450 min, pigs n = 8, single i.v. 1000 mg)?
A: 100%

Q: And the “Mean T>MIC” value ([1]; vancomycin MIC 1 μg/mL (low), subcutaneous tissue, microdialysis, UHPLC-MS/MS, pigs n = 8, single i.v. 1000 mg co-administered with meropenem, mean)?
A: 435 min

Q: What about the “Mean %T>MIC” value ([1]; vancomycin MIC 1 μg/mL (low), subcutaneous tissue, microdialysis, percentage of dosing interval of 450 min, pigs n = 8, single i.v. 1000 mg) of the same compound?
A: 97%

Q: And the “Mean %T>MIC” value ([1]; vancomycin MIC 1 μg/mL (low), vertebral cancellous bone, microdialysis, percentage of dosing interval of 450 min, pigs n = 8, single i.v. 1000 mg)?
A: 86%

Q: And the “Mean T>MIC” value ([1]; vancomycin MIC 1 μg/mL (low), vertebral cancellous bone, microdialysis, pigs n = 8, single i.v. 1000 mg co-administered with meropenem, mean)?
A: 388 min

Q: What about the “Mean %T>MIC” value ([1]; vancomycin MIC 4 μg/mL (high), intervertebral disc, microdialysis, percentage of dosing interval of 450 min, pigs, single i.v. 1000 mg) of the same compound?
A: 10%

Q: What about the “Mean T>MIC” value ([1]; vancomycin MIC 4 μg/mL (high), intervertebral disc, microdialysis, pigs, one disc catheter malfunctioned, single i.v. 1000 mg co-administered with meropenem, mean) of the same compound?
A: 45 min

Q: And the “Mean T>MIC” value ([1]; vancomycin MIC 4 μg/mL (high), paravertebral muscle, microdialysis, pigs n = 8, single i.v. 1000 mg co-administered with meropenem, mean)?
A: 306 min

Q: What about the “Mean T>MIC” value ([1]; vancomycin MIC 4 μg/mL (high), plasma, free drug, pigs n = 8, single i.v. 1000 mg co-administered with meropenem, mean) of the same compound?
A: 446 min

Q: And the “Mean %T>MIC” value ([1]; vancomycin MIC 4 μg/mL (high), plasma, percentage of dosing interval of 450 min, pigs n = 8, single i.v. 1000 mg)?
A: 99%

Q: And the “Mean %T>MIC” value ([1]; vancomycin MIC 4 μg/mL (high), subcutaneous tissue, microdialysis, percentage of dosing interval of 450 min, pigs n = 8, single i.v. 1000 mg)?
A: 81%

Q: And the “Mean T>MIC” value ([1]; vancomycin MIC 4 μg/mL (high), subcutaneous tissue, microdialysis, pigs n = 8, single i.v. 1000 mg co-administered with meropenem, mean)?
A: 365 min

Q: And the “Mean %T>MIC” value ([1]; vancomycin MIC 4 μg/mL (high), vertebral cancellous bone, microdialysis, percentage of dosing interval of 450 min, pigs n = 8, single i.v. 1000 mg)?
A: 47%

Q: And the “Mean T>MIC” value ([1]; vancomycin MIC 4 μg/mL (high), vertebral cancellous bone, microdialysis, pigs n = 8, single i.v. 1000 mg co-administered with meropenem, mean)?
A: 214 min

Q: And the “%T>MIC” value ([1]; vancomycin high MIC target (4 µg/mL), all solid tissue compartments, 8-h dosing interval, pigs, single i.v. 1000 mg)?
A: ≤ 81%

Q: And the “%T>MIC” value ([1]; vancomycin low MIC target (1 µg/mL), all the investigated compartments, 8-h dosing interval, pigs, single i.v. 1000 mg)?
A: ≥ 69%

Q: What about the “%T>MIC” value ([1]; vancomycin, range across all targeted tissues and plasma and both MIC targets (1 and 4 µg/mL), pigs, single i.v. 1000 mg) of the same compound?
A: 10–100%
